Measurements from ChEMBL document CHEMBL5214955, “Design, synthesis and activity evaluation of Hedgehog inhibitor Itraconazole derivatives in A549 cells” (Bioorg Med Chem Lett, 2022).
Activity calls are given as the source filed them. No cut-off for these calls is given here.

Columns and labels:
[1] = Cytotoxicity against human L02 cells assessed as inhibition of cell proliferation incubated for 48 hrs by MTT assay; type: toxicity, cell-based
[2] = Inhibition of hedgehog signalling pathway in human A549 cells assessed as reduction in Gli gene expression incubated for 24 hrs by qPCR analysis; type: cell-based; details: A549, 24 h
[3] = system: HepG2; assay: Antiproliferative activity against human HepG2 cells assessed as inhibition of cell proliferation incubated for 48 hrs by MTT assay; type: functional, cell-based; details: HepG2, 48 h
[4] = system: A549; assay: Antiproliferative activity against human A549 cells assessed as inhibition of cell proliferation incubated for 48 hrs by MTT assay; type: functional, cell-based; details: A549, 48 h
[5] = system: A549; assay: Induction of intracellular reactive oxygen species production in human A549 cells assessed as increase in number ROS positive cells at 30 uM and measured after 4 hrs by H2DCFH-DA staining based flow cytometric analysis; type: functional, cell-based
[6] = system: A549; assay: Induction of apoptosis in human A549 cells assessed as necrotic cells at 30 uM incubated for 24 hrs by Annexin V-FITC/PI staining based flow cytometric analysis (reference value: 0.084%); type: functional
[7] = system: A549; assay: Induction of apoptosis in human A549 cells assessed as early apoptotic cells at 30 uM incubated for 24 hrs by Annexin V-FITC/PI staining based flow cytometric analysis (reference value: 0.316%); type: functional
[8] = system: A549; assay: Induction of apoptosis in human A549 cells assessed as viable cells at 30 uM incubated for 24 hrs by Annexin V-FITC/PI staining based flow cytometric analysis (reference value: 98.2%); type: functional; details: read-out: Activity
[9] = system: A549; assay: Induction of mitochondrial membrane potential loss in human A549 cells assessed as assessed as proportion of MMP decreased cells at 30 uM and measured after 4 hrs by JC-1 staining based flow cytometry assay; type: functional, cell-based
[10] = system: A549; assay: Induction of mitochondrial membrane potential loss in human A549 cells assessed as assessed as proportion of MMP decreased cells at 30 uM and measured after 24 hrs by JC-1 staining based flow cytometry assay (reference value: 7.50%); type: functional; parameters: scale not given: the % may be the effect or the level left
[11] = system: A549; assay: Induction of apoptosis in human A549 cells assessed as late apoptotic cells at 30 uM incubated for 24 hrs by Annexin V-FITC/PI staining based flow cytometric analysis (reference value: 1.40%); type: functional
[12] = system: A549; assay: Antiproliferative activity against human A549 cells assessed as inhibition of clone formation at 10 uM incubated for 1 day followed by culture in new medium for 7 days by crystal violet staining based assay relative to control; type: functional; parameters: scale not given: the % may be the effect or the level left; details: time 8 day
[13] = system: A549; assay: Induction of intracellular reactive oxygen species production in human A549 cells assessed as increase in number ROS positive cells at 30 uM and measured after 4 hrs by DCFH-DA probe based confocal microscopy; type: functional, cell-based
[14] = system: A549; assay: Induction of intracellular reactive oxygen species production in human A549 cells assessed as increase in number ROS positive cells at 30 uM and measured after 24 hrs by H2DCFH-DA staining based flow cytometric analysis (Rvb=1.10%); type: functional

Row | SMILES | IC50 at 48 h [1] [µM] | IC50 [2] [µM] | IC50 [3] [µM] | IC50 [4] [µM] | Activity [5] | Activity [6] [%] | Activity [7] [%] | viability at 30 µM [8] [%] | Activity [9] | Activity [10] [%] | Activity [11] [%] | Activity [12] [%] | Activity [13] | Activity [14] [%]
1 | O=C(Nc1ccc(N2CCN(c3ccc(OC[C@@H]4CO[C@@](Cn5cncn5)(c5ccc(Cl)cc5Cl)O4)cc3)CC2)cc1)c1ccc(F)c(F)c1 | > 50 | 0.844 | 19.9 | 8.69 |  |  |  |  |  |  |  |  |  | 
2 | CCCC(=O)Nc1ccc(N2CCN(c3ccc(OC[C@@H]4CO[C@@](Cn5cncn5)(c5ccc(Cl)cc5Cl)O4)cc3)CC2)cc1 | > 50 |  | 9.93 | 2.99 |  |  |  |  |  |  |  |  |  | 
3 | O=C(Nc1ccc(N2CCN(c3ccc(OC[C@@H]4CO[C@@](Cn5cncn5)(c5ccc(Cl)cc5Cl)O4)cc3)CC2)cc1)c1cccc(F)c1 | > 50 |  | 10.8 | 6.64 |  |  |  |  |  |  |  |  |  | 
4 | O=C(CCc1ccccc1)Nc1ccc(N2CCN(c3ccc(OC[C@@H]4CO[C@@](Cn5cncn5)(c5ccc(Cl)cc5Cl)O4)cc3)CC2)cc1 | > 50 | 0.089 | 5.34 | 2.06 | Active | 1.07 | 12.4 | 34.7 | Active | 55.4 | 51.8 | 22 | Active | 62.9
5 | CCCCC(=O)Nc1ccc(N2CCN(c3ccc(OC[C@@H]4CO[C@@](Cn5cncn5)(c5ccc(Cl)cc5Cl)O4)cc3)CC2)cc1 | > 50 |  | 14.1 | 5.34 |  |  |  |  |  |  |  |  |  | 
6 | O=C(Cc1cccs1)Nc1ccc(N2CCN(c3ccc(OC[C@@H]4CO[C@@](Cn5cncn5)(c5ccc(Cl)cc5Cl)O4)cc3)CC2)cc1 | > 50 | 0.251 | 5.05 | 2.13 | Active | 1.89 | 7.54 | 44.5 | Active | 44.9 | 46.1 | 28 | Active | 53
7 | O=C(CCCCc1ccccc1)Nc1ccc(N2CCN(c3ccc(OC[C@@H]4CO[C@@](Cn5cncn5)(c5ccc(Cl)cc5Cl)O4)cc3)CC2)cc1 | > 50 | 0.457 | 7.01 | 2.61 |  |  |  |  |  |  |  |  |  | 
8 | Cc1ccc(C(=O)Nc2ccc(N3CCN(c4ccc(OC[C@@H]5CO[C@@](Cn6cncn6)(c6ccc(Cl)cc6Cl)O5)cc4)CC3)cc2)o1 | > 50 |  | 8.7 | 4.75 |  |  |  |  |  |  |  |  |  | 
9 | CCC(=O)Nc1ccc(N2CCN(c3ccc(OC[C@@H]4CO[C@@](Cn5cncn5)(c5ccc(Cl)cc5Cl)O4)cc3)CC2)cc1 | > 50 | 0.873 | 5.46 | 2.55 |  |  |  |  |  |  |  |  |  | 
10 | O=C(CC1CCOCC1)Nc1ccc(N2CCN(c3ccc(OC[C@@H]4CO[C@@](Cn5cncn5)(c5ccc(Cl)cc5Cl)O4)cc3)CC2)cc1 | > 50 |  | 21.1 | 10 |  |  |  |  |  |  |  |  |  | 
11 | O=C(Nc1ccc(N2CCN(c3ccc(OC[C@@H]4CO[C@@](Cn5cncn5)(c5ccc(Cl)cc5Cl)O4)cc3)CC2)cc1)c1ccco1 | > 50 |  | 22.3 | 10.5 |  |  |  |  |  |  |  |  |  | 
12 | O=C(Nc1ccc(N2CCN(c3ccc(OC[C@@H]4CO[C@@](Cn5cncn5)(c5ccc(Cl)cc5Cl)O4)cc3)CC2)cc1)c1cccs1 | > 50 |  | 9.77 | 4.33 |  |  |  |  |  |  |  |  |  | 
13 | CCC(C)n1ncn(-c2ccc(N3CCN(c4ccc(OCC5COC(Cn6cncn6)(c6ccc(Cl)cc6Cl)O5)cc4)CC3)cc2)c1=O (stereo unspecified) [ITRACONAZOLE] | > 50 | 0.125 | 7.87 | 3 |  | 3.84 | 7.65 | 53.9 |  | 36.3 | 34.6 | 34 |  | 38.3
14 | O=C(CCCc1ccccc1)Nc1ccc(N2CCN(c3ccc(OC[C@@H]4CO[C@@](Cn5cncn5)(c5ccc(Cl)cc5Cl)O4)cc3)CC2)cc1 | > 50 | 0.782 | 10.8 | 3.78 |  |  |  |  |  |  |  |  |  | 
